Experimental data from patent US12441980B2, “Methods for overcoming glutamine deprivation during mammalian cell culture” (priority 2014, dated 2025).

Assays:
[1] = system: anti alpha-synuclein CHO cells; experiment: Transition of anti alpha-synuclein CHO cells from glutamine-containing to glutamine-free media: growth rate and viability
Method: Anti alpha-synuclein cells were transferred from glutamine-containing media to glutamine-free media using a 1:5 split ratio on Day 0. Cells were cultured at 36° C., 5% CO2 in 500 mL shake flasks and passaged every 4 days using glutamine-free media+10 mg/L insulin (first bar in FIG. 7A, diamond in FIG. 7B), glutamine-free media+10 mg/L insulin, 100 μM hypoxanthine, 16 μM thymidine (second bar in FIG. 7A, square in FIG. 7B), glutamine-free media+10 mg/L insulin, 500 μM adenosine (third bar in FIG. 7A, triangle in FIG. 7B), or glutamine-free media+10 mg/L insulin, 100 μM adenosine (fourth bar in FIG. 7A, circle in FIG. 7B), using a 1:5 split ratio.
Offline analysis: Samples were taken on most days and analyzed with a variety of equipment. Cell density and viability were measured using the standard technique of trypan blue exclusion using a Cedex (Roche Innovatis AG, Germany). Cell viability and growth rate of the various cultures were measured during the culture time course at specific days post-inoculation.
Anti alpha-synuclein CHO cells were transferred from glutamine-containing media to glutamine-free media using a 1:5 split ratio on Day 0.

[2] = system: mammalian cells expressing an immunoadhesin (DG44); experiment: Transition of immunoadhesin-expressing cells from glutamine-containing to glutamine-free media: cell viability and growth rate (trypan blue exclusion, Cedex); format: cell-based; settings: 2.5 μM corticosteroid in glutamine-free media; FIG. 3
Excerpt: Cell culture methods: Cells were thawed and maintained as in a previous report (Kshirsagar, et al. 2012 Biotechnol Bioeng, Huang, et al. Biotechnology Progress 26(5):1400-1410 (2010)). Basal medium for thaw and passing was the same as in previous reports (Kshirsagar/Huang).

Compound	toxicity (concentration-dependent response) ([1]; 500 μM supplementation compared to 100 μM supplementation)	viability during transition to glutamine-free media ([1]; HT 100 μM/16 μM, adenosine 500 μM or 100 μM, FIG. 7B)	transitional growth rate ([1]; transition to glutamine-free media, 1:5 split ratio, HT 100 μM/16 μM, adenosine 100 or 500 μM, FIG. 7A)	viability drop vs control condition [2]	viability recovery period [2]
Nc1ncnc2c1ncn2[C@@H]1O[C@H](CO)[C@@H](O)[C@H]1O [adenosine]	slightly toxic	maintains	boosted the transitional growth rate		
C[C@]12CCC(=O)C=C1CC[C@@H]1[C@@H]2[C@@H](O)C[C@@]2(C)[C@H]1CC[C@]2(O)C(=O)CO [hydrocortisone]				prevented the sharp viability drop	shortened the viability recovery period
C[C@]12C=CC(=O)C=C1CC[C@@H]1[C@@H]2[C@@H](O)C[C@@]2(C)[C@H]1CC[C@]2(O)C(=O)CO [prednisolone]				prevented the sharp viability drop	shortened the viability recovery period
